From patent publication US11033596B2, “Antioxidant, anti-inflammatory compositions and uses thereof” (Malaysian Palm Oil Board, priority 2017, dated 2021)

What was measured:
RAW macrophages = experiment: Cell-based NO2- scavenging activity (Griess assay, RAW macrophages); details: for Actual % inhibition of ROS / % inhibition of ROS in comparison to Oil Palm phenolics (± S.E): Table 2; for Actual % inhibition of ROS: each component added at the concentration present in 800 μg/mL OPP; for % inhibition of ROS in comparison to Oil Palm phenolics (± S.E): relative to OPP 800 μg/mL = 100; for Enhancement of anti-inflammatory and anti-oxidative activity of other components / Inhibitory action / nitrite scavenging activity (in words): cell-based Griess assay
Method: FIG. 1 is a graphical representation of the biological enhancement of chemical combination of major compounds of Oil Palm phenolics in cell-based NO2^− scavenging activity (Griess assay, RAW macrophages, Mean±SE).
FIG. 1 and Table 2 show the synergistic effect of the composition in cell based nitrite scavenging activity.
For the study, PH435 composition was prepared according to the concentration present in 800 μg/mL of Oil Palm Phenolics.

Red blood cells = experiment: Cell-based antioxidant protection in erythrocytes (CAP-e assay), ROS scavenging; details: for Effect on reducing ROS / inhibitory action (in words): RBC cells; for Actual % inhibition of ROS: each component added at the concentration present in 10 mg/mL OPP; for % inhibition of ROS in comparison to Oil Palm phenolics (±S.E.): relative to OPP 10 mg/mL = 100
Excerpt: H2O2 Measurement (Cell-Based Antioxidant Protection in Erythrocytes CAP-e Assay)
Red blood cells can be used as a cellular model to quantify reactive oxygen species (ROS). As these cells lose their nuclei at the erythroblast stage, they cannot perform transcription and translation for bringing about genetic and protein level changes.

[1] = Nitrite measurement (sodium nitroprusside, SNP assay), chemical system; details: for Inhibition of the nitrite ion (in words): chemical system
Excerpt: Nitrite Measurement (Sodium Nitroprusside—SNP Assay)
SNP in aqueous solution at physiological pH spontaneously generates nitric oxide, which interacts with oxygen to produce a nitrite ion that can be estimated by using griess reagent.

[2] = system: Granulocytes/polymorphonuclear (PMN) cells; experiment: H2O2 measurement, cell-based antioxidant protection in granulocytes/polymorphonuclear (PMN) cells assay
Excerpt: H2O2 Measurement (Cell-Based Antioxidant Protection in Granulocytesipolymorphonuclear—PMN Cells Assay)

[3] = Chemical-based ORAC assay

Compound | Actual % inhibition of ROS (RAW macrophages) [%] | % inhibition of ROS in comparison to Oil Palm phenolics (± S.E) (RAW macrophages) | Actual % inhibition of ROS (Red blood cells) | % inhibition of ROS in comparison to Oil Palm phenolics (±S.E.) (Red blood cells) | further results
O=C(/C=C/c1ccc(O)c(O)c1)O[C@@H]1CC(C(=O)O)=C[C@@H](O)[C@H]1O [5-Caffeoylshikimic acid, 5-caffeoylshikimic acid] | 8.8 | 13.4(±3.7) % | – | – | –
O=C(O)c1ccc(O)c(O)c1 [Protocatechuic acid] | 8.6 | 13 (±0.7) % | – | – | –
O=C(O)C1=C[C@@H](O)[C@@H](O)[C@H](O)C1 [Shikimic acid] | 3.4 | 5.2 (±0.7) % | -Not detected- | -Not detected- | Effect on reducing ROS / inhibitory action (in words) (Red blood cells): shows no activity; Effect on reducing ROS / inhibitory action (in words) (Red blood cells; listed as shikimic acid): does not show any effect; Enhancement of nitrite inhibition when added with other components ([1]; added along with p-hydroxybenzoic acid): does not show any enhancement; Inhibition of the nitrite ion (in words) [1]: shows inhibitory action; Inhibition of the nitrite ion (in words) ([1]; listed as shikimic acid): low inhibition; Enhancement of anti-inflammatory and anti-oxidative activity of other components (RAW macrophages): able to enhance; Inhibitory action / nitrite scavenging activity (in words) (RAW macrophages): shows inhibitory action; Enhancement of anti-inflammatory and anti-oxidative activity of other components [2]: able to enhance; Inhibitory action (in words) [2]: shows inhibitory action
O=C(O)C1=CC(=O)[C@@H](O)[C@H](O)C1 [3-dehydroshikimic acid] | – | – | 9.9% | 13.4 (±0.05) % | Effect on reducing ROS / inhibitory action (in words) (Red blood cells): shows inhibitory action; Synergy / enhancement effect of the combination on ROS inhibition (Red blood cells; chemical combination versus mathematical sum): enhancement effect could be seen; Inhibition of the nitrite ion (in words) [1]: low inhibition; Inhibition of the nitrite ion (in words) ([1]; listed as 3-dehydroshikirnic acid): shows inhibitory action; Enhancement of anti-inflammatory and anti-oxidative activity of other components (RAW macrophages): enhancement effect could be seen; Inhibitory action / nitrite scavenging activity (in words) (RAW macrophages): shows inhibitory action; Enhancement effect [3]: enhancement effect could be seen
O=C(/C=C/c1ccc(O)c(O)c1)O[C@@H]1[C@H](O)C=C(C(=O)O)C[C@H]1O [4-Caffeoylshikimic acid, 4-caffeoylshikimic acid] | 8.4 | 12.7(±2.5) % | – | – | –
caffeoylshikimic acid | – | – | 25.9% | 35.2(±0.1) % | –
O=C(/C=C/c1ccc(O)c(O)c1)O[C@@H]1C=C(C(=O)O)C[C@@H](O)[C@@H]1O [3-Caffeoylshikimic acid, 3-caffeoylshikimic acid] | 12.3 | 18.6(±2.3) % | – | – | –
O=C(O)c1ccc(O)cc1 [p-hydoxybenzoic acid] | 11.4 | 17.3(±2.8) % | 22.5% | 30.6 (±0.2) % | –
